Assay results taken from PubChem BioAssay (NCI).
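Test compounds were applied to cells in 96-well plates for 48 hours at 5 doses. TGI: total growth inhibition.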

Experiments:
Experiment in all cases: DTP human tumour cell line panel, 48 h
[1] = tested on: 786-0 renal
[2] = tested on: A498 renal
[3] = tested on: A549 NSCLC
[4] = tested on: ACHN renal
[5] = tested on: CAKI-1 renal
[6] = tested on: CCRF-CEM leukemia
[7] = tested on: DLD-1 colon
[8] = tested on: DMS 114 small cell lung
[9] = tested on: DMS 273 small cell lung
[10] = tested on: EKVX NSCLC
[11] = tested on: HCC-2998 colon
[12] = tested on: HCT-116 colon
[13] = tested on: HCT-15 colon
[14] = tested on: HL-60(TB) leukemia
[15] = tested on: HOP-92 NSCLC
[16] = tested on: HT29 colon
[17] = tested on: IGROV1 ovarian
[18] = tested on: K-562 leukemia
[19] = tested on: KM20L2 colon
[20] = tested on: LOX IMVI melanoma
[21] = tested on: LXFL 529 NSCLC
[22] = tested on: M14 melanoma
[23] = tested on: M19-MEL melanoma
[24] = tested on: MALME-3M melanoma
[25] = tested on: MOLT-4 leukemia
[26] = tested on: NCI-H226 lung
[27] = tested on: NCI-H23 lung
[28] = tested on: NCI-H460 lung
[29] = tested on: OVCAR-3 ovarian
[30] = tested on: OVCAR-4 ovarian
[31] = tested on: OVCAR-5 ovarian
[32] = tested on: OVCAR-8 ovarian
[33] = tested on: RPMI-8226 leukemia
[34] = tested on: RXF 393 renal
[35] = tested on: SF-268 CNS
[36] = tested on: SF-295 CNS
[37] = tested on: SF-539 CNS
[38] = tested on: SK-MEL-2 melanoma
[39] = tested on: SK-MEL-28 melanoma
[40] = tested on: SK-MEL-5 melanoma
[41] = tested on: SN12C renal
[42] = tested on: SNB-19 CNS
[43] = tested on: SNB-75 CNS
[44] = tested on: SNB-78 CNS
[45] = tested on: SR leukemia
[46] = tested on: SW-620 colon
[47] = tested on: TK-10 renal
[48] = tested on: U251 CNS
[49] = tested on: UACC-257 melanoma
[50] = tested on: UACC-62 melanoma
[51] = tested on: UO-31 renal
[52] = tested on: XF 498 CNS
[53] = tested on: COLO 205 colon
[54] = tested on: HOP-62 NSCLC
[55] = tested on: KM12 colon
[56] = tested on: NCI-H522 lung
[57] = tested on: SK-OV-3 ovarian

Question: For `O=C(CC1Sc2ccccc2NC1=O)Nc1cccc(Cl)c1` (stereo not drawn), which TGI [1] is on record?
Answer: The TGI was greater than 100 µM.

Question: And the TGI [2]?
Answer: Its TGI is greater than 100 µM.

Question: And the TGI [3]?
Answer: Its TGI is greater than 100 µM.

Question: And the TGI [4]?
Answer: Its TGI is greater than 100 µM.

Question: And the TGI [5]?
Answer: Its TGI is greater than 100 µM.

Question: What about the TGI [6] of the same molecule?
Answer: The TGI was greater than 100 µM.

Question: What about the TGI [7] of the same molecule?
Answer: The TGI was greater than 100 µM.

Question: And the TGI [8]?
Answer: The TGI was greater than 100 µM.

Question: And the TGI [9]?
Answer: The TGI was greater than 100 µM.

Question: And the TGI [10]?
Answer: Its TGI is 84.8 µM.

Question: What about the TGI [11] of the same molecule?
Answer: The TGI was greater than 100 µM.

Question: What about the TGI [12] of the same molecule?
Answer: The TGI was greater than 100 µM.

Question: What about the TGI [13] of the same molecule?
Answer: The TGI was greater than 100 µM.

Question: What about the TGI [14] of the same molecule?
Answer: Its TGI is greater than 100 µM.

Question: And the TGI [15]?
Answer: The TGI was 86.1 µM.

Question: What about the TGI [16] of the same molecule?
Answer: Its TGI is greater than 100 µM.

Question: What about the TGI [17] of the same molecule?
Answer: Its TGI is greater than 100 µM.

Question: What about the TGI [18] of the same molecule?
Answer: The TGI was greater than 100 µM.

Question: What about the TGI [19] of the same molecule?
Answer: The TGI was greater than 100 µM.

Question: What about the TGI [20] of the same molecule?
Answer: The TGI was 48.2 µM.

Question: And the TGI [21]?
Answer: The TGI was greater than 100 µM.

Question: What about the TGI [22] of the same molecule?
Answer: The TGI was greater than 100 µM.

Question: What about the TGI [23] of the same molecule?
Answer: Its TGI is greater than 100 µM.

Question: What about the TGI [24] of the same molecule?
Answer: The TGI was greater than 100 µM.

Question: What about the TGI [25] of the same molecule?
Answer: The TGI was 57.2 µM.

Question: What about the TGI [26] of the same molecule?
Answer: Its TGI is 90.8 µM.

Question: And the TGI [27]?
Answer: Its TGI is greater than 100 µM.

Question: And the TGI [28]?
Answer: The TGI was greater than 100 µM.

Question: What about the TGI [29] of the same molecule?
Answer: The TGI was 86.8 µM.

Question: And the TGI [30]?
Answer: Its TGI is greater than 100 µM.

Question: And the TGI [31]?
Answer: The TGI was greater than 100 µM.

Question: What about the TGI [32] of the same molecule?
Answer: Its TGI is 75.8 µM.

Question: What about the TGI [33] of the same molecule?
Answer: Its TGI is 69.6 µM.

Question: And the TGI [34]?
Answer: The TGI was 80.4 µM.

Question: And the TGI [35]?
Answer: The TGI was greater than 100 µM.

Question: What about the TGI [36] of the same molecule?
Answer: The TGI was greater than 100 µM.

Question: What about the TGI [37] of the same molecule?
Answer: Its TGI is greater than 100 µM.

Question: And the TGI [38]?
Answer: Its TGI is greater than 100 µM.

Question: What about the TGI [39] of the same molecule?
Answer: The TGI was 89.7 µM.

Question: What about the TGI [40] of the same molecule?
Answer: Its TGI is greater than 100 µM.

Question: What about the TGI [41] of the same molecule?
Answer: The TGI was greater than 100 µM.

Question: What about the TGI [42] of the same molecule?
Answer: The TGI was greater than 100 µM.

Question: What about the TGI [43] of the same molecule?
Answer: The TGI was greater than 100 µM.

Question: What about the TGI [44] of the same molecule?
Answer: Its TGI is greater than 100 µM.

Question: What about the TGI [45] of the same molecule?
Answer: The TGI was 97.5 µM.

Question: And the TGI [46]?
Answer: The TGI was greater than 100 µM.

Question: And the TGI [47]?
Answer: Its TGI is greater than 100 µM.

Question: And the TGI [48]?
Answer: The TGI was 82.8 µM.

Question: And the TGI [49]?
Answer: Its TGI is greater than 100 µM.

Question: What about the TGI [50] of the same molecule?
Answer: Its TGI is greater than 100 µM.

Question: And the TGI [51]?
Answer: The TGI was 82.5 µM.

Question: And the TGI [52]?
Answer: The TGI was 86.5 µM.

Question: What does the source list for `CC(C)c1ccc2c(c1)CCC1C(C)(C)[C@@H](O)CC[C@]21C` (stereo partly drawn)?
Answer: TGI [1]: 52.5 µM; TGI [3]: > 100 µM; TGI [4]: > 100 µM; TGI [5]: > 100 µM; TGI [6]: > 100 µM; TGI [53]: 32.9 µM; TGI [7]: > 100 µM; TGI [8]: > 100 µM; TGI [9]: > 100 µM; TGI [11]: 58.1 µM; TGI [12]: 34.1 µM; TGI [13]: > 100 µM; TGI [14]: 37.6 µM; TGI [54]: 37.4 µM; TGI [15]: 52.8 µM; TGI [16]: 30 µM; TGI [17]: > 100 µM; TGI [18]: > 100 µM; TGI [55]: 71.5 µM; TGI [19]: 44.4 µM; TGI [20]: 28.8 µM; TGI [21]: > 100 µM; TGI [22]: 72.4 µM; TGI [23]: 44.2 µM; TGI [24]: 30.8 µM; TGI [25]: 89.9 µM; TGI [26]: 38.5 µM; TGI [27]: 93 µM; TGI [28]: 41.4 µM; TGI [56]: 79 µM; TGI [29]: > 100 µM; TGI [30]: > 100 µM; TGI [31]: 41.7 µM; TGI [32]: > 100 µM; TGI [33]: 52 µM; TGI [34]: 54.3 µM; TGI [35]: > 100 µM; TGI [36]: 43.4 µM; TGI [37]: 65.1 µM; TGI [39]: > 100 µM; TGI [40]: 32.1 µM; TGI [57]: > 100 µM; TGI [41]: 40.2 µM; TGI [42]: > 100 µM; TGI [43]: 55.4 µM; TGI [44]: > 100 µM; TGI [45]: 33.4 µM; TGI [47]: > 100 µM; TGI [48]: 52.2 µM; TGI [50]: > 100 µM; TGI [51]: > 100 µM
